Laboratory results from patent US20130116263A1, “PAK INHIBITORS FOR THE TREATMENT OF CELL PROLIFERATIVE DISORDERS” (AFRAXIS, INC., priority 2011, published 2013).

Legend:
Type in all cases: biochemical
[1] = target: T1, PAK1 (Homo sapiens, UniProt Q13153); test: Additional in vitro PAK1 inhibition assay at ATP 10 uM and 1 mM
Protocol: (§1) Similar in vitro PAK1 and PAK-4 inhibition assays are conducted in compounds for the treatment of cancer, but under ATP concentrations of 10 uM and 1 mM.

[2] = target: T2, PAK4 (Homo sapiens, UniProt O96013); test: Additional in vitro PAK-4 inhibition assay at ATP 10 uM and 1 mM; conditions: 10 μM ATP; read-out: PAK4 IC50 (10 μM ATP)
T2 sequence (O96013 whole entry): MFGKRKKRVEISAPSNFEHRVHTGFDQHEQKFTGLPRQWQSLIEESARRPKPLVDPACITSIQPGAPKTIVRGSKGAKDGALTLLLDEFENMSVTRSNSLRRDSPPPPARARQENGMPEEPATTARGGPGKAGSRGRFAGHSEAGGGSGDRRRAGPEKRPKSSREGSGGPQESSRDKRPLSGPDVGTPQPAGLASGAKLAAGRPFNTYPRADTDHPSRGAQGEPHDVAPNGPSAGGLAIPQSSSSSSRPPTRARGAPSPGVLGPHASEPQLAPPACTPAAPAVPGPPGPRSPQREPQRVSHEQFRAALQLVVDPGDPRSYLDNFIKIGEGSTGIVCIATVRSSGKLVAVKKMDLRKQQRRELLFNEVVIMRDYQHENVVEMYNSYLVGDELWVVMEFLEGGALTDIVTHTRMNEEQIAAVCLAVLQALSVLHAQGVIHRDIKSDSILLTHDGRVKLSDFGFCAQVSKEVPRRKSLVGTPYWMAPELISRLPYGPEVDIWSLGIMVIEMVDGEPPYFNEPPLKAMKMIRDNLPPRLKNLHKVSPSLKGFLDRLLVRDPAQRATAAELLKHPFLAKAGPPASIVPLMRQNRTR
Protocol: as §1

[3] = target: T1, PAK1; test: In vitro PAK inhibition assay (Z'-LYTE, SelectScreen), PAK1; conditions: read-out: PAK1 IC50
How it was run: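 The PAK1 reaction on Ser/Thr 19 peptide runs 60 min at room temperature in 50 mM HEPES pH 7.5 with 10 mM MgCl2, 1 mM EGTA, 0.01% BRIJ-35; Z'-LYTE fluorescence read after 60 min development.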

[4] = target: T2, PAK4; test: In vitro PAK inhibition assay (Z'-LYTE, SelectScreen), PAK4
How it was run: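 Z'-LYTE FRET assay with 0.1-0.75 ng PAK-4 and 2 μM Ser/Thr 20 peptide in 50 mM HEPES pH 7.5, 10 mM MgCl2, 1 mM EGTA, 0.01% BRIJ-35, 1% DMSO; ATP near apparent Km. 1 h kinase reaction at room temperature, then 1 h development; IC50 from 10-point 3-fold titrations fitted to a sigmoidal dose-response.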

[5] = target: PAK2 (PAK65) (Homo sapiens, UniProt Q13177); test: In vitro PAK inhibition assay (Z'-LYTE, SelectScreen), PAK2; conditions: read-out: PAK2 IC50
Sequence of PAK2 (PAK65) (Q13177 whole entry): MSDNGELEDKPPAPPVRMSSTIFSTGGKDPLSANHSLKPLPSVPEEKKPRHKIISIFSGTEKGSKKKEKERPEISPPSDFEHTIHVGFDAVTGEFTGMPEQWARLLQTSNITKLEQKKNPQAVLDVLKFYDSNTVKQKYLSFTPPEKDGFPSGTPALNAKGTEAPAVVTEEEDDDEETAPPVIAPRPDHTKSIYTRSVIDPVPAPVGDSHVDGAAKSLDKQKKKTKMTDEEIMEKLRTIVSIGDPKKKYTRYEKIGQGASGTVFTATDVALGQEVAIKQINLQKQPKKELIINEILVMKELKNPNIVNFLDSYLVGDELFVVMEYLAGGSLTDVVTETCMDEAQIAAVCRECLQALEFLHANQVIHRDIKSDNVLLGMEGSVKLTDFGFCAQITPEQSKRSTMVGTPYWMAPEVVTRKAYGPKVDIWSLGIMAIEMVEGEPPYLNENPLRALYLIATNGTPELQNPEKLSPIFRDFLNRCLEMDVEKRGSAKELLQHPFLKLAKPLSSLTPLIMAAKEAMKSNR
How it was run: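 Z'-LYTE FRET readout using Ser/Thr 20 peptide (2 μM) with 0.29–6 ng PAK2 in 50 mM HEPES pH 7.5, 0.01% BRIJ-35, 10 mM MgCl2, 1 mM EGTA, 1% DMSO. Reaction and development each ran 60 min at room temperature.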

[6] = target: PAK3 (Homo sapiens, UniProt O75914); test: In vitro PAK inhibition assay (Z'-LYTE, SelectScreen), PAK3; conditions: read-out: PAK3 IC50
Sequence of PAK3 (O75914 1-544 isoform O75914-2): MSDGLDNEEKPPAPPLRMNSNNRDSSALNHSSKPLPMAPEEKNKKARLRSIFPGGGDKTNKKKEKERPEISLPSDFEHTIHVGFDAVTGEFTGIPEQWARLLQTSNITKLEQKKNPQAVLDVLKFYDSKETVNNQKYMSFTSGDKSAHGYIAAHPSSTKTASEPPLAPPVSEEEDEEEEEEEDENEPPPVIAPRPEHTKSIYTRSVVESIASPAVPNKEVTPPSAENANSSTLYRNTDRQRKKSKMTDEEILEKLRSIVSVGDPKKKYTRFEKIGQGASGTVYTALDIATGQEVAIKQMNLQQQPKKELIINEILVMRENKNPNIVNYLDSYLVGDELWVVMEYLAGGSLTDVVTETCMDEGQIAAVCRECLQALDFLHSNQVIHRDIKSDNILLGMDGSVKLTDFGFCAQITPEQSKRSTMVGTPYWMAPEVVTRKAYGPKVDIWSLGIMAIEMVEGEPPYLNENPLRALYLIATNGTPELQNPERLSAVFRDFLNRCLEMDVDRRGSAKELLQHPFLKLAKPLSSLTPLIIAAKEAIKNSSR
How it was run: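 Z'-LYTE FRET format: PAK3 with Ser/Thr 20 peptide in 50 mM HEPES pH 7.5, 0.01% BRIJ-35, 10 mM MgCl2, 1 mM EGTA, 1% DMSO final. Kinase reaction 60 min at room temperature, then 60 min development and fluorescence read.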

[7] = 10 μM ATP, read-out: PAK1 IC50 (10 μM ATP)
[8] = 1 mM ATP, read-out: PAK1 IC50 (1 mM ATP)

T1 sequence (Q13153 whole entry): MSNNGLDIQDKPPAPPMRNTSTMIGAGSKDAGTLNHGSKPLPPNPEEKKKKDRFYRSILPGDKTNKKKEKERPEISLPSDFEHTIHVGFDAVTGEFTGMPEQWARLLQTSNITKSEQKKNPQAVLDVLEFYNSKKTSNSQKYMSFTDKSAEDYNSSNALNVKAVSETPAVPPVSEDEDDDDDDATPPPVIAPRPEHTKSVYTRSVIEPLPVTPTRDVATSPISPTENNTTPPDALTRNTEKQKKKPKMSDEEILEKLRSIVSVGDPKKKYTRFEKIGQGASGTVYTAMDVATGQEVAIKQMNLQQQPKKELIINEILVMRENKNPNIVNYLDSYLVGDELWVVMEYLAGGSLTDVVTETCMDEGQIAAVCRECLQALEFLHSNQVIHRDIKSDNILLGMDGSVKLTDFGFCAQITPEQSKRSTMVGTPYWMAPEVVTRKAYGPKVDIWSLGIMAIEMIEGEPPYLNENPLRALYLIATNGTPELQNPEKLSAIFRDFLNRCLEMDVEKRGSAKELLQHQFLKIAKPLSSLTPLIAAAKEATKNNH

IC50 [1, 7] [nM]	IC50 [1, 8] [nM]	IC50 [2] [nM]	IC50 [3] [nM]	IC50 [4] [nM]	IC50 [5] [nM]	IC50 [6] [nM]	Structure (SMILES)
< 50	500 to 5000	≥ 5000	–	–	–	–	Cc1nc(-c2ccc(-c3cc4cnc(NC5CC5)nc4n(Cc4cccc(CN)c4)c3=O)c(Cl)c2)no1
< 50	500 to 5000	≥ 5000	–	–	–	–	Cc1nc(-c2ccc(-c3cc4cnc(NC5CCOCC5)nc4n(CC(=O)NCCCN)c3=O)c(Cl)c2)no1
50 to 500	500 to 5000	≥ 5000	–	–	–	–	Cc1nc(-c2ccc(-c3cc4cnc(NC5CC5)nc4n(Cc4cccc(CN(C)C)c4)c3=O)c(Cl)c2)no1
50 to 500	≥ 5000	≥ 5000	–	–	–	–	Cc1nc(-c2ccc(-c3cc4cnc(NC5CCOCC5)nc4n(C4CC4)c3=O)c(Cl)c2)no1
≥ 5000	≥ 5000	50 to 500	–	–	–	–	CCn1c(=O)c(-c2ccc(-c3noc(C)n3)cc2Cl)cc2cnc(NCC(=O)N(C)C)nc21
< 50	500 to 5000	≥ 5000	–	–	–	–	Cc1nc(-c2ccc(-c3cc4cnc(NC5CCOCC5)nc4n(C4CCOC(C)(C)C4)c3=O)c(Cl)c2)no1 (centres unmarked)
500 to 5000	500 to 5000	500 to 5000	–	–	–	–	CCn1c(=O)c(-c2ccc(-c3noc(C)n3)cc2Cl)cc2cnc(NC3CC3c3ccccc3)nc21 (centres unmarked)
50 to 500	≥ 5000	≥ 5000	–	–	–	–	Cc1nc(-c2ccc(-c3cc4cnc(NC5CCOCC5)nc4n(C4CCN(CCN)C4)c3=O)c(Cl)c2)no1 (centres unmarked)
50 to 500	≥ 5000	≥ 5000	–	–	–	–	CCn1c(=O)c(-c2ccc(-c3noc(C)n3)cc2Cl)cc2cnc(NC3CC3)nc21
50 to 500	≥ 5000	≥ 5000	–	–	–	–	CCCCn1c(=O)c(-c2ccc(-c3noc(C)n3)cc2Cl)cc2cnc(NC3CCOCC3)nc21
500 to 5000	≥ 5000	≥ 5000	–	–	–	–	CCn1c(=O)c(-c2ccc(-c3noc(C)n3)cc2Cl)cc2cnc(NN3CCOCC3)nc21
500 to 5000	≥ 5000	≥ 5000	–	–	–	–	CCn1c(=O)c(-c2ccc(-c3noc(C)n3)cc2Cl)cc2cnc(NCCCOC)nc21
50 to 500	≥ 5000	≥ 5000	–	–	–	–	CCn1c(=O)c(-c2ccc(-c3noc(C)n3)cc2Cl)cc2cnc(NC3CCOC(C)(C)C3)nc21 (centres unmarked)
500 to 5000	≥ 5000	≥ 5000	–	–	–	–	CCO[C@H]1COC[C@@H]1Nc1ncc2cc(-c3ccc(-c4noc(C)n4)cc3Cl)c(=O)n(CC)c2n1
500 to 5000	≥ 5000	≥ 5000	–	–	–	–	CCCCNc1ncc2cc(-c3ccc(-c4noc(C)n4)cc3Cl)c(=O)n(CC)c2n1
500 to 5000	≥ 5000	≥ 5000	–	–	–	–	CCn1c(=O)c(-c2ccc(-c3noc(C)n3)cc2Cl)cc2cnc(NCc3ccccc3)nc21
< 50	50 to 500	≥ 5000	–	–	–	–	Cc1nc(-c2ccc(-c3cc4cnc(NC5CCOCC5)nc4n(Cc4cccc(CCN)c4)c3=O)c(Cl)c2)no1 [drawing 339]
–	–	–	50 to 500	> 5000	50 to 500	50 to 500	Cc1cncc(-c2ccc(-c3cc4cnc(NC5CCOCC5)nc4n(Cc4ccccc4F)c3=O)c(Cl)c2)n1 [Example 36]
–	–	–	50 to 500	> 5000	50 to 500	50 to 500	CCn1c(=O)c(-c2ccc(-c3cncc(C)n3)cc2Cl)cc2cnc(NCCOCCN)nc21 [Example 128]
–	–	–	50 to 500	> 5000	50 to 500	500 to 5000	CCn1c(=O)c(-c2ccc(-c3nccnc3C)cc2Cl)cc2cnc(NC3CC[S+]([O-])CC3)nc21 (centres unmarked) [Example 74]
–	–	–	50 to 500	> 5000	50 to 500	500 to 5000	CCn1c(=O)c(-c2ccc(-c3cncc(C)n3)cc2Cl)cc2cnc(N[C@H]3CC[C@@H](N)CC3)nc21 [Example 86]
–	–	–	50 to 500	> 5000	50 to 500	500 to 5000	Cc1nccnc1-c1ccc(-c2cc3cnc(N[C@@H]4CCOC4)nc3n(Cc3ccncc3)c2=O)c(Cl)c1 [Example 124]

IC50 [1, 7] [nM]	IC50 [1, 8] [nM]	IC50 [2] [nM]	IC50 [3] [nM]	IC50 [4] [nM]	IC50 [5] [nM]	IC50 [6] [nM]	Structure (SMILES)
–	–	–	< 50	> 5000	< 50	50 to 500	CCn1c(=O)c(-c2cc(C)c(-c3cncc(C)n3)cc2Cl)cc2cnc(N[C@H]3CCOC3)nc21 [Example 72]
–	–	–	50 to 500	> 5000	50 to 500	> 5000	CCn1c(=O)c(-c2ccc(-c3nccnc3C)cc2Cl)cc2cnc(NC3CCCN(C)C3)nc21 (centres unmarked) [Example 81]
–	–	–	50 to 500	> 5000	< 50	50 to 500	Cc1cncc(-c2ccc(-c3cc4cnc(NC5CCOCC5)nc4n(Cc4ccccc4C(F)(F)F)c3=O)c(Cl)c2)n1 [Example 20]
–	–	–	50 to 500	> 5000	< 50	50 to 500	CCn1c(=O)c(-c2ccc(-c3cncc(C)n3)cc2Cl)cc2cnc(N[C@H]3CCOC3)nc21 [Example 27]
–	–	–	50 to 500	> 5000	50 to 500	50 to 500	CCn1c(=O)c(-c2ccc(-c3noc(C)n3)cc2Cl)cc2cnc(NC3CCOCC3)nc21 [Example 4]
–	–	–	< 50	> 5000	< 50	50 to 500	CCn1c(=O)c(-c2ccc(-c3noc(C)n3)cc2Cl)cc2cnc(NCCC3CCN(C)CC3)nc21 [Example 93]
–	–	–	50 to 500	> 5000	50 to 500	50 to 500	Cc1nccnc1-c1ccc(-c2cc3cnc(NC4CCOCC4)nc3n(C)c2=O)c(Cl)c1 [Example 9]
–	–	–	50 to 500	> 5000	50 to 500	500 to 5000	Cc1nccnc1-c1ccc(-c2cc3cnc(NC4CCOCC4)nc3[nH]c2=O)c(Cl)c1 [Example 10]
–	–	–	500 to 5000	> 5000	50 to 500	> 5000	CCn1c(=O)c(-c2ccc(-c3ccc(C)nc3)cc2Cl)cc2cnc(N[C@@H]3CCOC3)nc21 [Example 56]
–	–	–	500 to 5000	> 5000	500 to 5000	500 to 5000	CCn1c(=O)c(-c2ccc(-c3ccncc3C)cc2Cl)cc2cnc(NC3CCOCC3)nc21 [Example 46]
–	–	–	50 to 500	> 5000	50 to 500	50 to 500	O=c1c(-c2ccc(-c3ccncn3)cc2Cl)cc2cnc(NC3CCOCC3)nc2n1Cc1ccccc1C(F)(F)F [Example 23]
–	–	–	< 50	> 5000	< 50	50 to 500	CCn1c(=O)c(-c2ccc(-c3cncc(C)n3)cc2Cl)cc2cnc(N[C@@H]3CCOC3)nc21 [Example 28]
–	–	–	< 50	> 5000	< 50	50 to 500	CCn1c(=O)c(-c2ccc(-c3cncc(C)n3)cc2Cl)cc2cnc(NC3CCOCC3)nc21 [Example 7]
–	–	–	50 to 500	> 5000	50 to 500	50 to 500	CCn1c(=O)c(-c2ccc(-c3nccnc3C)cc2Cl)cc2cnc(NC3CCOCC3)nc21 [Example 2]
–	–	–	50 to 500	> 5000	< 50	50 to 500	Cc1cncc(-c2ccc(-c3cc4cnc(N[C@H]5CCOC5)nc4n(CCN)c3=O)c(Cl)c2)n1 [Example 100]
–	–	–	< 50	> 5000	50 to 500	50 to 500	CCn1c(=O)c(-c2ccc(-c3cccnc3F)cc2Cl)cc2cnc(N[C@@H]3CCOC3)nc21 [Example 40]
–	–	–	500 to 5000	> 5000	50 to 500	500 to 5000	CCn1c(=O)c(-c2ccc(-c3nccnc3C)cc2Cl)cc2cnc(NC3CCN(C(C)=O)CC3)nc21 [Example 80]
–	–	–	50 to 500	> 5000	50 to 500	500 to 5000	CCn1c(=O)c(-c2ccc(-c3cnc(C)s3)cc2Cl)cc2cnc(N[C@@H]3CCOC3)nc21 [Example 55]
–	–	–	< 50	> 5000	< 50	50 to 500	CCn1c(=O)c(-c2ccc(-c3nccnc3C)cc2Cl)cc2cnc(NCCC3CCN(C)CC3)nc21 [Example 91]
–	–	–	< 50	> 5000	< 50	50 to 500	Cc1cncc(-c2ccc(-c3cc4cnc(N[C@@H]5CCOC5)nc4n([C@H]4CC[C@H](N)CC4)c3=O)c(Cl)c2)n1 [Example 109]
–	–	–	50 to 500	> 5000	< 50	50 to 500	Cc1nccnc1-c1ccc(-c2cc3cnc(N[C@@H]4CCOC4)nc3n(Cc3cccnc3)c2=O)c(Cl)c1 [Example 122, (R)-6-(2-chloro-4-(3-methylpyrazin-2-yl)phenyl)-8-(pyridin-3-ylmethyl)-2-((tetrahydrofuran-3-yl)amino)pyrido[2,3-d]pyrimidin-7(8H)-one]
